Converted amounts (≈) assume the structure as drawn. “And” between values parts separate entries of the source, which are not always exact repeats. Equal values may be shown once. Read-outs that look alike come from different tables or passages of the source.
Legend:
[1] = system: Mycobacterium tuberculosis H37Rv ATCC27294T; test: MIC, antibacterial specificity; assay type: cell-based
[2] = system: E. coli AG100; test: Time-kill kinetics (CFU); assay type: cell-based, Escherichia coli
Description: A drug-free control was included in the assay to monitor the normal growth of the strain. Cultures were sampled for CFU determination after 0, 1, 2, 3, 4, 5, 6, and 24 h of incubation at 37 °C with shaking. For CFU determination, 10-fold serial dilutions were made in a saline solution and 20 µl of each solution was placed onto the surface of a Mueller–Hinton agar plate. The colonies were counted after the incubation of the plates at 37 °C for 24 h. The limit of detection of the assay was 17 CFU/ml. Each assay was repeated at least twice.

CCCOc1ccc(-c2cc(OCCN3CCNCC3)c3ccccc3n2)cc1 [PQQ4R, 4-(2-(piperazin-1-yl)ethoxy)-2-(4-propoxyphenyl) quinolone]
MIC [1]: 32 µg/mL (≈ 81.7 µM)
time of exposure to reduce viability to zero [2]: 3 h and 4 h
MBC (minimal bactericidal concentration) ([2]; AG100): 640 µM (≈ 251 µg/mL)
viability ([2]; AG100, 80 μM (1/8 MIC)): 100%
viability ([2]; AG100, 160 μM (1/4 MIC)): 98%
viability ([2]; AG100, 320 μM (1/2 MIC)): 92%
viability ([2]; AG100, 640 μM (MIC)): 0%
CFU count Log10 ([2]; AG100, 1/2 MIC, T1 (1 h)): 3.836
CFU count Mean ([2]; AG100, 1/2 MIC, T1 (1 h)): 6.8E+03
CFU count Log10 ([2]; AG100, 1/2 MIC, T2 (2 h)): 3.5272
CFU count Mean ([2]; AG100, 1/2 MIC, T2 (2 h)): 3.4E+03
CFU count Log10 ([2]; AG100, 1/2 MIC, T3 (3 h)): 3.503
CFU count Mean ([2]; AG100, 1/2 MIC, T3 (3 h)): 3.2E+03
CFU count Log10 ([2]; AG100, 1/2 MIC, T4 (4 h)): 3.423
CFU count Mean ([2]; AG100, 1/2 MIC, T4 (4 h)): 2.6E+03
CFU count Log10 ([2]; AG100, 1/2 MIC, T5 (5 h)): 2.79
CFU count Mean ([2]; AG100, 1/2 MIC, T5 (5 h)): 6.2E+02
CFU count Log10 ([2]; AG100, 1/2 MIC, T6 (6 h)): 2.222
CFU count Mean ([2]; AG100, 1/2 MIC, T6 (6 h)): 1.7E+02
CFU count Mean ([2]; AG100, 1/2 MIC, T24 (24 h)): 2.0E+13
CFU count - Strain dilution ([2]; AG100, 2xMIC, T1 (1 h)): 0
CFU count - absolute values ([2]; AG100, 2xMIC, T1 (1 h)): 0
CFU count Log10 ([2]; AG100, 2xMIC, T1 (1 h)): 0
CFU count Mean ([2]; AG100, 2xMIC, T1 (1 h)): 0.0E+00
CFU count - Strain dilution ([2]; AG100, 2xMIC, T2 (2 h)): 0
CFU count - absolute values ([2]; AG100, 2xMIC, T2 (2 h)): 0
CFU count Log10 ([2]; AG100, 2xMIC, T2 (2 h)): 0
CFU count Mean ([2]; AG100, 2xMIC, T2 (2 h)): 0.0E+00
CFU count - Strain dilution ([2]; AG100, 2xMIC, T3 (3 h)): 0
CFU count - absolute values ([2]; AG100, 2xMIC, T3 (3 h)): 0
CFU count Log10 ([2]; AG100, 2xMIC, T3 (3 h)): 0
CFU count Mean ([2]; AG100, 2xMIC, T3 (3 h)): 0.0E+00
CFU count - Strain dilution ([2]; AG100, 2xMIC, T4 (4 h)): 0
CFU count - absolute values ([2]; AG100, 2xMIC, T4 (4 h)): 0
CFU count Log10 ([2]; AG100, 2xMIC, T4 (4 h)): 0
CFU count Mean ([2]; AG100, 2xMIC, T4 (4 h)): 0.0E+00
CFU count - Strain dilution ([2]; AG100, 2xMIC, T5 (5 h)): 0
CFU count - absolute values ([2]; AG100, 2xMIC, T5 (5 h)): 0
CFU count Log10 ([2]; AG100, 2xMIC, T5 (5 h)): 0
CFU count Mean ([2]; AG100, 2xMIC, T5 (5 h)): 0.0E+00
CFU count - Strain dilution ([2]; AG100, 2xMIC, T6 (6 h)): 0
CFU count - absolute values ([2]; AG100, 2xMIC, T6 (6 h)): 0
CFU count Log10 ([2]; AG100, 2xMIC, T6 (6 h)): 0
CFU count Mean ([2]; AG100, 2xMIC, T6 (6 h)): 0.0E+00
CFU count - Strain dilution ([2]; AG100, 2xMIC, T24 (24 h)): 0
CFU count - absolute values ([2]; AG100, 2xMIC, T24 (24 h)): 0
CFU count Log10 ([2]; AG100, 2xMIC, T24 (24 h)): 0
CFU count Mean ([2]; AG100, 2xMIC, T24 (24 h)): 0.0E+00
time of exposure to reduce viability to zero ([2]; AG100, 2× MIC): 1 h
CFU count - Strain dilution ([2]; AG100, 4xMIC, T1 (1 h)): 0
CFU count - absolute values ([2]; AG100, 4xMIC, T1 (1 h)): 0
CFU count Log10 ([2]; AG100, 4xMIC, T1 (1 h)): 0
CFU count Mean ([2]; AG100, 4xMIC, T1 (1 h)): 0.0E+00
CFU count - Strain dilution ([2]; AG100, 4xMIC, T2 (2 h)): 0
CFU count - absolute values ([2]; AG100, 4xMIC, T2 (2 h)): 0
CFU count Log10 ([2]; AG100, 4xMIC, T2 (2 h)): 0
CFU count Mean ([2]; AG100, 4xMIC, T2 (2 h)): 0.0E+00
CFU count - Strain dilution ([2]; AG100, 4xMIC, T3 (3 h)): 0
CFU count - absolute values ([2]; AG100, 4xMIC, T3 (3 h)): 0
CFU count Log10 ([2]; AG100, 4xMIC, T3 (3 h)): 0
CFU count Mean ([2]; AG100, 4xMIC, T3 (3 h)): 0.0E+00
CFU count - Strain dilution ([2]; AG100, 4xMIC, T4 (4 h)): 0
CFU count - absolute values ([2]; AG100, 4xMIC, T4 (4 h)): 0
CFU count Log10 ([2]; AG100, 4xMIC, T4 (4 h)): 0
CFU count Mean ([2]; AG100, 4xMIC, T4 (4 h)): 0.0E+00
CFU count - Strain dilution ([2]; AG100, 4xMIC, T5 (5 h)): 0
CFU count - absolute values ([2]; AG100, 4xMIC, T5 (5 h)): 0
CFU count Log10 ([2]; AG100, 4xMIC, T5 (5 h)): 0
CFU count Mean ([2]; AG100, 4xMIC, T5 (5 h)): 0.0E+00
CFU count - Strain dilution ([2]; AG100, 4xMIC, T6 (6 h)): 0
CFU count - absolute values ([2]; AG100, 4xMIC, T6 (6 h)): 0
CFU count Log10 ([2]; AG100, 4xMIC, T6 (6 h)): 0

Source: article PMC5433425 (PeerJ, 2017)
